Laboratory results: patent US9920063B2, “Melampomagnolide B derivatives” (Board of Trustees of the University of Arkansas, priority 2013, dated 2018)
Like-named read-outs stand apart in the source and are kept apart here.

Assays:
SW-620 = test: NCI human tumor cell line panel, Colon Cancer

C=C1C(=O)O[C@H]2[C@H]1CC/C(COC(=O)c1cc3ccccc3[nH]1)=C\CC[C@@]1(C)O[C@@H]21 [BS-1-28]
Percent Growth (SW-620; Log10 Concentration −4.0): −75%
Percent Growth (SW-620; Log10 Concentration −5.0): −67%
Percent Growth (SW-620; Log10 Concentration −6.0): −19%
Percent Growth (SW-620; Log10 Concentration −7.0): 98%
Percent Growth (SW-620; Log10 Concentration −8.0): 93%
GI50 (SW-620; NCI five dose): 256 nM
TGI (SW-620; NCI five dose): 8.88E−7
CC50 (SW-620; read-out: LC50, NCI five dose): 4470 nM
Percent Growth (HL-60(TB); Log10 Concentration −4.0): −57%
Percent Growth (HL-60(TB); Log10 Concentration −5.0): −17%
Percent Growth (HL-60(TB); Log10 Concentration −6.0): 28%
Percent Growth (HL-60(TB); Log10 Concentration −7.0): 112%
Percent Growth (HL-60(TB); Log10 Concentration −8.0): 114%
GI50 (HL-60(TB); NCI five dose): 546 nM
TGI (HL-60(TB); NCI five dose): 4.15E−6
CC50 (HL-60(TB); read-out: LC50, NCI five dose): 65800 nM
CC50 (MDA-MB-231/ATCC): 8560 nM
Percent Growth (MDA-MB-231/ATCC; MDA-MB-231/ATCC, Log10 Concentration −4.0): −73%
Percent Growth (MDA-MB-231/ATCC; MDA-MB-231/ATCC, Log10 Concentration −5.0): −58%
Percent Growth (MDA-MB-231/ATCC; MDA-MB-231/ATCC, Log10 Concentration −6.0): 56%
Percent Growth (MDA-MB-231/ATCC; MDA-MB-231/ATCC, Log10 Concentration −7.0): 87%
Percent Growth (MDA-MB-231/ATCC; MDA-MB-231/ATCC, Log10 Concentration −8.0): 89%
GI50 (MDA-MB-231/ATCC; MDA-MB-231/ATCC, NCI five dose): 1140 nM
TGI (MDA-MB-231/ATCC; MDA-MB-231/ATCC, NCI five dose): 3.12E−6
CC50 (HCT-15): 2430 nM
Percent Growth (HCT-15; HCT-15, Log10 Concentration −4.0): −82%
Percent Growth (HCT-15; HCT-15, Log10 Concentration −5.0): −64%
Percent Growth (HCT-15; HCT-15, Log10 Concentration −6.0): −41%
Percent Growth (HCT-15; HCT-15, Log10 Concentration −7.0): 94%
Percent Growth (HCT-15; HCT-15, Log10 Concentration −8.0): 93%
GI50 (HCT-15; HCT-15, NCI five dose): 211 nM
TGI (HCT-15; HCT-15, NCI five dose): 4.95E−7
CC50 (HT29): 5970 nM
Percent Growth (HT29; HT29, Log10 Concentration −4.0): −80%
Percent Growth (HT29; HT29, Log10 Concentration −5.0): −57%
Percent Growth (HT29; HT29, Log10 Concentration −6.0): −25%
Percent Growth (HT29; HT29, Log10 Concentration −7.0): 109%
Percent Growth (HT29; HT29, Log10 Concentration −8.0): 103%
GI50 (HT29; HT29, NCI five dose): 276 nM
TGI (HT29; HT29, NCI five dose): 6.51E−7
CC50 (MDA-MB-435): 5850 nM
Percent Growth (MDA-MB-435; MDA-MB-435, Log10 Concentration −4.0): −96%
Percent Growth (MDA-MB-435; MDA-MB-435, Log10 Concentration −5.0): −76%
Percent Growth (MDA-MB-435; MDA-MB-435, Log10 Concentration −6.0): 44%
Percent Growth (MDA-MB-435; MDA-MB-435, Log10 Concentration −7.0): 98%
Percent Growth (MDA-MB-435; MDA-MB-435, Log10 Concentration −8.0): 97%
GI50 (MDA-MB-435; MDA-MB-435, NCI five dose): 763 nM
TGI (MDA-MB-435; MDA-MB-435, NCI five dose): 2.28E−6
CC50 (CCRF-CEM): > 100000 nM
Percent Growth (CCRF-CEM; CCRF-CEM, Log10 Concentration −4.0): −37%
Percent Growth (CCRF-CEM; CCRF-CEM, Log10 Concentration −5.0): −15%
Percent Growth (CCRF-CEM; CCRF-CEM, Log10 Concentration −6.0): 3%
Percent Growth (CCRF-CEM; CCRF-CEM, Log10 Concentration −7.0): 90%
Percent Growth (CCRF-CEM; CCRF-CEM, Log10 Concentration −8.0): 99%
GI50 (CCRF-CEM; CCRF-CEM, NCI five dose): 286 nM
TGI (CCRF-CEM; CCRF-CEM, NCI five dose): 1.45E−6
GI50 (CCRF-CEM; leukemia cell line CCRF-CEM): 288 nM
CC50 (OVCAR-3): 2660 nM
Percent Growth (OVCAR-3; OVCAR-3, Log10 Concentration −4.0): −95%
Percent Growth (OVCAR-3; OVCAR-3, Log10 Concentration −5.0): −92%
Percent Growth (OVCAR-3; OVCAR-3, Log10 Concentration −6.0): −15%
Percent Growth (OVCAR-3; OVCAR-3, Log10 Concentration −7.0): 50%
Percent Growth (OVCAR-3; OVCAR-3, Log10 Concentration −8.0): 19%
TGI (OVCAR-3; OVCAR-3, NCI five dose): 5.92E−7
CC50 (SK-MEL-5): 5120 nM
Percent Growth (SK-MEL-5; SK-MEL-5, Log10 Concentration −4.0): −95%
Percent Growth (SK-MEL-5; SK-MEL-5, Log10 Concentration −5.0): −98%
Percent Growth (SK-MEL-5; SK-MEL-5, Log10 Concentration −6.0): 67%
Percent Growth (SK-MEL-5; SK-MEL-5, Log10 Concentration −7.0): 92%
Percent Growth (SK-MEL-5; SK-MEL-5, Log10 Concentration −8.0): 96%
GI50 (SK-MEL-5; SK-MEL-5, NCI five dose): 1260 nM
TGI (SK-MEL-5; SK-MEL-5, NCI five dose): 2.54E−6
CC50 (DU-145): 5200 nM
Percent Growth (DU-145; DU-145, Log10 Concentration −4.0): −98%
Percent Growth (DU-145; DU-145, Log10 Concentration −5.0): −95%
Percent Growth (DU-145; DU-145, Log10 Concentration −6.0): 63%
Percent Growth (DU-145; DU-145, Log10 Concentration −7.0): 98%
Percent Growth (DU-145; DU-145, Log10 Concentration −8.0): 91%
GI50 (DU-145; DU-145, NCI five dose): 1210 nM
TGI (DU-145; DU-145, NCI five dose): 2.51E−6
CC50 (SF-268): 6500 nM
Percent Growth (SF-268; SF-268, Log10 Concentration −4.0): −85%
Percent Growth (SF-268; SF-268, Log10 Concentration −5.0): −81%
Percent Growth (SF-268; SF-268, Log10 Concentration −6.0): 83%
Percent Growth (SF-268; SF-268, Log10 Concentration −7.0): 96%
Percent Growth (SF-268; SF-268, Log10 Concentration −8.0): 98%
GI50 (SF-268; SF-268, NCI five dose): 1590 nM
TGI (SF-268; SF-268, NCI five dose): 3.22E−6
CC50 (T-47D): > 100000 nM
GI50 (T-47D): < 10 nM
Percent Growth (T-47D; T-47D, Log10 Concentration −4.0): −33%
Percent Growth (T-47D; T-47D, Log10 Concentration −5.0): −43%
Percent Growth (T-47D; T-47D, Log10 Concentration −6.0): 35%
Percent Growth (T-47D; T-47D, Log10 Concentration −7.0): 40%
Percent Growth (T-47D; T-47D, Log10 Concentration −8.0): −2%
GI50 (T-47D; T-47D, NCI five dose): < 10 nM
CC50 (NCI-H522): 6720 nM
Percent Growth (NCI-H522; NCI-H522, Log10 Concentration −4.0): −72%
Percent Growth (NCI-H522; NCI-H522, Log10 Concentration −5.0): −69%
Percent Growth (NCI-H522; NCI-H522, Log10 Concentration −6.0): 43%
Percent Growth (NCI-H522; NCI-H522, Log10 Concentration −7.0): 104%
Percent Growth (NCI-H522; NCI-H522, Log10 Concentration −8.0): 83%
GI50 (NCI-H522; NCI-H522, NCI five dose): 757 nM
TGI (NCI-H522; NCI-H522, NCI five dose): 2.40E−6
CC50 (SF-295): 12000 nM
Percent Growth (SF-295; SF-295, Log10 Concentration −4.0): −95%
Percent Growth (SF-295; SF-295, Log10 Concentration −5.0): .46%
Percent Growth (SF-295; SF-295, Log10 Concentration −6.0): 79%
Percent Growth (SF-295; SF-295, Log10 Concentration −7.0): 89%
Percent Growth (SF-295; SF-295, Log10 Concentration −8.0): 85%
GI50 (SF-295; SF-295, NCI five dose): 1710 nM
TGI (SF-295; SF-295, NCI five dose): 4.28E−6
CC50 (UO-31): 5000 nM
Percent Growth (UO-31; UO-31, Log10 Concentration −4.0): −89%
Percent Growth (UO-31; UO-31, Log10 Concentration −5.0): −92%
Percent Growth (UO-31; UO-31, Log10 Concentration −6.0): 49%
Percent Growth (UO-31; UO-31, Log10 Concentration −7.0): 74%
Percent Growth (UO-31; UO-31, Log10 Concentration −8.0): 72%
GI50 (UO-31; UO-31, NCI five dose): 887 nM
TGI (UO-31; UO-31, NCI five dose): 2.21E−6
CC50 (HS 57BT): > 100000 nM
Percent Growth (HS 57BT; HS 57BT, Log10 Concentration −4.0): −20%
Percent Growth (HS 57BT; HS 57BT, Log10 Concentration −5.0): −5%
Percent Growth (HS 57BT; HS 57BT, Log10 Concentration −6.0): 78%
Percent Growth (HS 57BT; HS 57BT, Log10 Concentration −7.0): 84%
Percent Growth (HS 57BT; HS 57BT, Log10 Concentration −8.0): 47%
TGI (HS 57BT; HS 57BT, NCI five dose): 8.71E−6
CC50 (KM12): 15600 nM
Percent Growth (KM12; KM12, Log10 Concentration −4.0): −82%
Percent Growth (KM12; KM12, Log10 Concentration −5.0): −42%
Percent Growth (KM12; KM12, Log10 Concentration −6.0): 92%
Percent Growth (KM12; KM12, Log10 Concentration −7.0): 96%
Percent Growth (KM12; KM12, Log10 Concentration −8.0): 93%
GI50 (KM12; KM12, NCI five dose): 2050 nM
TGI (KM12; KM12, NCI five dose): 4.84E−6
CC50 (SK-MEL-2): 7830 nM
Percent Growth (SK-MEL-2; SK-MEL-2, Log10 Concentration −4.0): −88%
Percent Growth (SK-MEL-2; SK-MEL-2, Log10 Concentration −5.0): −67%
Percent Growth (SK-MEL-2; SK-MEL-2, Log10 Concentration −6.0): 96%
Percent Growth (SK-MEL-2; SK-MEL-2, Log10 Concentration −7.0): 113%
Percent Growth (SK-MEL-2; SK-MEL-2, Log10 Concentration −8.0): 103%
GI50 (SK-MEL-2; SK-MEL-2, NCI five dose): 1920 nM
TGI (SK-MEL-2; SK-MEL-2, NCI five dose): 3.88E−6
